Data reported in patent US20210395327A1, “Growth Hormone-Releasing Hormone Antagonists and Uses Thereof” (United States Government As Represented By The Department …, priority 2019, published 2021).
Non-standard residues stand in square brackets, D forms with d. Residues, ends and D or L forms follow the SMILES beside them. *: point of attachment. Phenylacetyl(2,3,4,5,6-F5) = O=C(Cc1c(F)c(F)c(F)c(F)c1F)*; Phe(F5) = N[C@@H](Cc1c(F)c(F)c(F)c(F)c1F)C(=O)O; Phe(4-Cl) = N[C@@H](Cc1ccc(Cl)cc1)C(=O)O; hArg = N=C(N)NCCCC[C@H](N)C(=O)O; 12Ado = NCCCCCCCCCCCC(=O)O; Nle = CCCC[C@H](N)C(=O)O; Orn = NCCC[C@H](N)C(=O)O; Abu = CC[C@H](N)C(=O)O

Assays:
[1] = system: lung cancer HCC827 xenograft; test: Xenograft tumor growth in nude mice, HCC827; format: in vivo; conditions: Table 4B, Lung Ca HCC827, 7 weeks, 5 μg/day s.c.; for % Inhibition: vs control
Protocol: The peptides' activity was compared with GHRH antagonist MIA-602. All statistical analyzses were performed from comparing GHRA antagonists to non-treated tumor (control).
Peptides and chemicals. GHRH antagonists MIA-602 and AVR-GHRH antagonists (see Table 2 above) were synthesized by solid phase methods and purified by HPLC. The peptides were dissolved in DMSO and further diluted in 10% 1,2-propanediol. The final concentration of peptides was 50 µg/ml in 10% 1,2-propanediol containing 0.1% of DMSO.
(§1) Cell culture. Human cancer cell lines including pancreatic (PANC-1 and CFPAC-1), lung (HCC827 and H460), stomach (NCI-N87), prostate (PC3), brest (MX-1 and HCC-1806), colorectal (HT-29), and ovarian (SK-OV-3 and OVCAR-3) were obtained from the American Type Culture Collection (ATCC) and cultured at 37° C. in a humidified 95% air/5% CO2 atmosphere in the medium recommended by ATCC.
Xenograft models of human cancers in nude mice. Female athymic (NCr nu/nu) nude mice, 5- to 6-weeks-old, obtained from the Envigo labs (Tampa, Fla.), were housed in laminar airflow cabinets under pathogen-free conditions with a 12-h light/12-h dark schedule, and were fed autoclaved standard chow and water. To generate mice with xenografted tumors, tumor xenografts were initiated by subcutaneous (s.c.) injection of 107 human cancer cells into female nude mice. After about 4 weeks the resulting tumors were dissected and collected after removing necrosis tissues. The tumors were then cut into particles with size of 3 mm3 and transplanted s.c. by trocar needle into experimental animals. When tumors grew to the size of 50-60 mm3 (by volume), mice were randomized into groups and treated daily for 4-8 weeks by subcutaneous administration of 5 μg of GHRH antagonists MIA-602 or AVR-compounds (2-10 μg as indicated), or vehicle solutions (0.1% DMSO in 10% 1,2-propanediol) respectively. Tumor sizes were measured weekly.
Statistical analysis. One-way ANOVA followed by Bonferroni comparison were performed. Data are expressed as Mean±SEM. To determine statistical significance between animal groups, two-tailed Student's t-test was conducted. Differences were considered significant when p<0.05.
Results. […] FIG. 1A-N represents in vivo inhibition of tumor growth during the treatment with GHRH antagonist MIA-602 and selected AVR antagonists in nude mice xenografted with various human tumors including pancreatic cancer PANC-1 (FIG. 1A) and CFPAC-1 (FIG. 1I); lung cancer HCC827 (FIGS. 1B, C) and H460 (FIG. 1H); stomach cancer N87 (FIGS. 1D-F); colon cancer HT-29 (FIG. 1G); breast cancer MX-1 and HCC-1806 (FIGS. 1J, K); ovarian cancer SK-OV-3 and OVACAR-3 (FIGS. 1 L, M) and prostate cancer PC3 (FIG. 1N). See also Table 5.

[2] = system: CFPAC-1 pancreatic cancer cells; test: In vitro cell viability, CFPAC-1; format: cell-based, human; conditions: for In vitro relative inhibitory potency in comparison to MIA-602, CFPAC-1: Table 3B, 5 μM for 72 H, MIA-602 = 1
In short: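 Human tumour lines were exposed to GHRH antagonist at 1, 2.5 or 5 μM for 72 h with medium refreshed every 48 h, after 24 h in low-serum (0.5% FBS) medium. Cell viability (CellTiter 96) was expressed as inhibition relative to MIA602.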

[3] = system: HT-29 colon cancer cells; test: In vitro cell viability, HT-29; format: cell-based, human; conditions: Table 3B; 5 μM for 72 H; MIA-602 = 1
Protocol: The inhibitory effects of the various synthesized GHRH antagonists were tested in cell proliferation assays in various human cancer cell lines including stomach cancer (KATOIII, N87), colon cancer (HT-29), urothelial cancer (J82, RT4), pancreatic cancer (PANC-1, CFPAC-1), prostatic cancer (PC3), breast cancer (MX-1, HCC1806), ovarian cancer (SK-OV-3, OVCAR-3) and lung cancer (HCC827, H460).
as §1, with “(NCI-N87 and KATOIII), urothelial (J82, RT4), prostatic” for “(NCI-N87), prostate”, “breast” for “brest”, “HCC 1806),” for “HCC-1806),”
In vitro cell viability. Cell viability was analyzed as follows: cancer cells including pancreatic (PANC-1 and CFPAC-1), lung (HCC827 and H460), stomach (NCI-N87 and KATOIII), urothelial (J82, RT4), prostatic (PC3) and breast (MX-1 and HCC 1806), colorectal (HT-29) and ovarian (SK-OV-3 and OVCAR-3) were grown on 96 well plates to ˜60% confluence, the cells were starved for 24 h in culture medium containing 0.5% FBS. Cells were then treated with GHRH antagonists MIA602 AVR compounds at concentrations of 1, 2.5 or 5 μM, or vehicle (0.1% DMSO) in quintuplicates for 72 hours. The medium was replaced every 48 hours. Cell viability was measured using CellTiter 96 aqueous one solution kit (Promega). Inhibitory effects of tested AVR compounds in comparison to that of MIA602 are presented as inhibitory potency.
Inhibitory effects of selected AVR compounds in comparison to that of MIA602 are presented as inhibitory potency (e.g., percentage of inhibition). […] The cell lines tested including lung cancer HCC827 (FIG. 2A), pancreatic cancer CFPAC-1 (FIG. 2B), stomach cancer N87 (FIG. 2C), colon cancer HT-29 (FIG. 2D), breast cancers MX-1 and HCC1806 (FIGS. 2 E, F). Based on the results of cell proliferation assay after cancer cells were treated with antagonist at concentration of 5 μM for 72H, the relative inhibitory potency of AVR antagonists in comparison to MIA-602 is summarized in Table 3 A and B. Over 60 AVR compounds were tested in 12 cancer cell lines.
Based on the results of cell proliferation assay after cancer cells were treated with antagonist at concentration of 5 µM for 72H, * at concentration of 2 µM for 72 H.

Compound | Tumor Growth % [1] [%] | % Inhibition [1] [%] | In vitro relative inhibitory potency in comparison to MIA-602, CFPAC-1 [2] | In vitro relative inhibitory potency in comparison to MIA-602, HT-29 [3] | relative inhibitory potency in comparison to MIA-602, Pancreatic CFPAC-1 ([2]; antagonist 5 μM for 72 h, cell proliferation assay, MIA602 = 1)
CCCC[C@H](NC(=O)[C@@H](NC(=O)[C@H](CC(=O)O)NC(=O)[C@H](CCC(N)=O)NC(=O)[C@H](CC(C)C)NC(=O)[C@H](CC(C)C)NC(=O)[C@H](CCCN)NC(=O)[C@H](Cc1c[nH]cn1)NC(=O)[C@H](C)NC(=O)[C@H](CO)NC(=O)[C@H](CC(C)C)NC(=O)[C@H](CCC(N)=O)NC(=O)[C@H](CC)NC(=O)[C@H](CC(C)C)NC(=O)[C@@H](NC(=O)[C@H](CCCN)NC(=O)[C@H](Cc1c[nH]cn1)NC(=O)[C@H](Cc1ccc(OC)cc1)NC(=O)[C@H](CCCCNC(=N)N)NC(=O)[C@H](C)NC(=O)[C@@H](NC(=O)[C@H](Cc1c(F)c(F)c(F)c(F)c1F)NC(=O)[C@@H](NC(=O)[C@H](C)NC(=O)[C@H](CC(=O)O)NC(=O)[C@@H](CCCNC(=N)N)NC(=O)[C@H](Cc1ccc(O)cc1)NC(=O)CCCCCCCCCCCNC(=O)Cc1c(F)c(F)c(F)c(F)c1F)[C@@H](C)CC)[C@@H](C)O)C(C)C)[C@@H](C)CC)C(=O)N[C@H](CCCNC(=N)N)C(=O)N[C@@H](CCCCNC(=N)N)C(=O)NCCCCCCCCCCCC(N)=O [AVR-553, 5FPhAC-Ada-Tyr-DArg-Asp-Ala-Ile-5FPhe-Thr-Ala-Har-Tyr(Me)-His-Orn-Val-Leu-Abu-Gln-Leu-Ser-Ala-His-Orn-Leu-Leu-Gln-Asp-Ile-Nle-DArg-Har-Ada-NH2] ({Phenylacetyl(2,3,4,5,6-F5)-12Ado}-Y[dR]DAI[Phe(F5)]TA[hArg]Y(Me)H[Orn]VL[Abu]QLSAH[Orn]LLQDI[Nle][dR][hArg][12Ado]-NH2) | 1132.0 | 13.7 | – | – | –
CCCC[C@H](NC(=O)[C@@H](NC(=O)[C@H](CC(=O)O)NC(=O)[C@H](CCC(N)=O)NC(=O)[C@H](CC(C)C)NC(=O)[C@H](CC(C)C)NC(=O)[C@H](CCCCN)NC(=O)[C@H](CCCNC(=N)N)NC(=O)[C@H](C)NC(=O)[C@H](CO)NC(=O)[C@H](CC(C)C)NC(=O)[C@H](CCC(N)=O)NC(=O)[C@H](CC)NC(=O)[C@H](CC(C)C)NC(=O)[C@@H](NC(=O)[C@H](CCCCN)NC(=O)[C@H](CCCNC(=N)N)NC(=O)[C@H](Cc1ccc(OC)cc1)NC(=O)[C@H](CCCCNC(=N)N)NC(=O)[C@H](CC(N)=O)NC(=O)[C@@H](NC(=O)[C@H](Cc1ccc(Cl)cc1)NC(=O)[C@@H](NC(=O)[C@H](C)NC(=O)[C@H](CC(=O)O)NC(=O)[C@@H](CCCNC(=N)N)NC(=O)[C@H](Cc1ccc(O)cc1)NC(=O)CCCCCCCCCCCNC(=O)Cc1c(F)c(F)c(F)c(F)c1F)[C@@H](C)CC)[C@@H](C)O)C(C)C)[C@@H](C)CC)C(=O)N[C@H](CCCNC(=N)N)C(=O)N[C@@H](CCCCNC(=N)N)C(=O)NCCCCCCCCCCCC(N)=O [AVR-333, 5FPhAC-Ada-Tyr-DArg-Asp-Ala-Ile-Cpa-Thr-Asn-Har-Tyr(Me)-Arg-Lys-Val-Leu-Abu-Gln-Leu-Ser-Ala-Arg-Lys-Leu-Leu-Gln-Asp-Ile-Nle-DArg-Har-Ada-NH2] ({Phenylacetyl(2,3,4,5,6-F5)-12Ado}-Y[dR]DAI[Phe(4-Cl)]TN[hArg]Y(Me)RKVL[Abu]QLSARKLLQDI[Nle][dR][hArg][12Ado]-NH2) | 407.5 | 68.9 | 2.288 | – | –
CCCC[C@H](NC(=O)[C@@H](NC(=O)[C@H](CC(=O)O)NC(=O)[C@H](CCC(N)=O)NC(=O)[C@H](CC(C)C)NC(=O)[C@H](CC(C)C)NC(=O)[C@H](CCCCN)NC(=O)[C@H](CCCNC(=N)N)NC(=O)[C@H](C)NC(=O)[C@H](CO)NC(=O)[C@H](CC(C)C)NC(=O)[C@H](CCC(N)=O)NC(=O)[C@H](CC)NC(=O)[C@H](CC(C)C)NC(=O)[C@@H](NC(=O)[C@H](CCCCN)NC(=O)[C@H](CCCNC(=N)N)NC(=O)[C@H](Cc1ccc(OC)cc1)NC(=O)[C@H](CCCCNC(=N)N)NC(=O)[C@H](C)NC(=O)[C@@H](NC(=O)[C@H](Cc1c(F)c(F)c(F)c(F)c1F)NC(=O)[C@@H](NC(=O)[C@H](C)NC(=O)[C@H](CC(=O)O)NC(=O)[C@@H](CCCNC(=N)N)NC(=O)[C@H](Cc1ccc(O)cc1)NC(=O)CCCCCCCCCCCNC(=O)Cc1c(F)c(F)c(F)c(F)c1F)[C@@H](C)CC)[C@@H](C)O)C(C)C)[C@@H](C)CC)C(=O)N[C@H](CCCNC(=N)N)C(=O)N[C@@H](CCCCNC(=N)N)C(=O)NC [AVR-235] ({Phenylacetyl(2,3,4,5,6-F5)-12Ado}-Y[dR]DAI[Phe(F5)]TA[hArg]Y(Me)RKVL[Abu]QLSARKLLQDI[Nle][dR][hArg]-NHMe) | 771.0 | 41.2 | 1.497 | 0.968 | 1.399
CCCC[C@H](NC(=O)[C@@H](NC(=O)[C@H](CC(=O)O)NC(=O)[C@H](CCC(N)=O)NC(=O)[C@H](CC(C)C)NC(=O)[C@H](CC(C)C)NC(=O)[C@H](CCCN)NC(=O)[C@H](Cc1c[nH]cn1)NC(=O)[C@H](C)NC(=O)[C@H](CO)NC(=O)[C@H](CC(C)C)NC(=O)[C@H](CCC(N)=O)NC(=O)[C@H](CC)NC(=O)[C@H](CC(C)C)NC(=O)[C@@H](NC(=O)[C@H](CCCN)NC(=O)[C@H](Cc1c[nH]cn1)NC(=O)[C@H](Cc1c(F)c(F)c(F)c(F)c1F)NC(=O)[C@H](CCCCNC(=N)N)NC(=O)[C@H](C)NC(=O)[C@@H](NC(=O)[C@H](Cc1ccc(Cl)cc1)NC(=O)[C@@H](NC(=O)[C@H](C)NC(=O)[C@H](CC(=O)O)NC(=O)[C@@H](CCCNC(=N)N)NC(=O)[C@H](Cc1ccc(O)cc1)NC(=O)CCCCCCCCCCCNC(=O)Cc1c(F)c(F)c(F)c(F)c1F)[C@@H](C)CC)[C@@H](C)O)C(C)C)[C@@H](C)CC)C(=O)N[C@H](CCCNC(=N)N)C(=O)N[C@@H](CCCCNC(=N)N)C(=O)NCCCCCCCCCCCC(=O)NC [AVR-543, 5FPhAC-Ada-Tyr-DArg-Asp-Ala-Ile-Cpa-Thr-Ala-Har-5FPhe-His-Orn-Val-Leu-Abu-Gln-Leu-Ser-Ala-His-Orn-Leu-Leu-Gln-Asp-Ile-Nle-DArg-Har-Ada-NHCH3] ({Phenylacetyl(2,3,4,5,6-F5)-12Ado}-Y[dR]DAI[Phe(4-Cl)]TA[hArg][Phe(F5)]H[Orn]VL[Abu]QLSAH[Orn]LLQDI[Nle][dR][hArg][12Ado]-NHMe) | 806.0 | 38.6 | 2.05 | 0.999 | –
